{"source": "patent US4845109A", "about": "“Alkoxy-and phenoxy alkyl esters of 2,6-dimethyl-4-(2-difluoromethoxyphenyl)-1,4-dihydropyridine-3,5-carboxy lic acid” (priority 1988, dated 1989)", "key": {"arterial pressure [1]": {"system": "arterial pressure", "experiment": "Acute experiments on narcotized cats: reduction of arterial pressure (intravenous)", "type": "in vivo", "conditions": "for ED30: Felis catus, read-out: ED30 (average dose that reduces the arterial pressure by 30%)", "protocol": "In acute experiments on cats narcotized with glucochloralose and urethane (90 and 200 mg/kg, respectively, administered intraperitoneally), there were recorded arterial pressure from the common carotid artery, respiration and an ECG with standard lead II. The compounds under study were administered intravenously as a dimethylacetamide solution.\n(§1) Average doses of the compounds under study that\n(§2) reduce the arterial pressure in narcotized animals by 30%"}, "vertebral artery": {"system": "vertebral artery", "experiment": "Blood circulation rate in vertebral artery of narcotized dogs", "type": "in vivo", "conditions": "intravenous"}, "carotid artery": {"system": "carotid artery", "experiment": "Blood circulation rate in carotid artery of narcotized dogs", "type": "in vivo", "conditions": "intravenous"}, "coronary artery": {"system": "coronary artery", "experiment": "Blood circulation rate in coronary artery of narcotized dogs", "type": "in vivo", "conditions": "intravenous"}, "femoral artery": {"system": "femoral artery", "experiment": "Blood circulation rate in femoral artery of narcotized dogs", "type": "in vivo", "conditions": "intravenous"}, "cerebral vessels": {"system": "cerebral vessels", "conditions": "background art; cited from earlier work"}, "in vivo": {"experiment": "in vivo", "conditions": "mouse, ip", "quoted_text": "Acute toxicity of the compounds involved compared\nwith the known drugs tested on albino mice\n(intraperitoneal administration)"}, "arterial pressure [2]": {"system": "arterial pressure", "experiment": "Hypotensive activity in narcotized rats: reduction of arterial pressure", "type": "in vivo", "conditions": "Rattus norvegicus; narcotized rats (urethane); read-out: ED30 (average dose that reduces the arterial pressure by 30%)", "from_the_text": "as §1, §2"}, "[3]": {"system": "arteries supplying blood to the heart and brain", "experiment": "Systolic arterial pressure and blood circulation in arteries of heart and brain of narcotized dogs", "type": "in vivo", "conditions": "intravenous"}, "[4]": {"system": "systolic arterial pressure", "experiment": "Hypotensive effect in spontaneously hypertensive rats (SHR), oral", "type": "in vivo", "conditions": "for Hypotensive effect compared with Niphedipin / Hypotensive potency: 3 and 10 mg/kg"}, "[5]": {"conditions": "background art, occasionally; cited from earlier work"}}}
{"smiles": "COC(=O)C1=C(C)NC(C)=C(C(=O)OCCN(C)Cc2ccccc2)C1c1cccc([N+](=O)[O-])c1.Cl", "note": "(stereo not drawn) [Nicardipin, 2,6-dimethyl-3-methoxy-carbonyl-4-(3-nitrophenyl)-5-[2(N-benzyl-N-methylamino)ethoxycarbonyl]-1,4-dihydropyridine hydrochloride, reference compound]", "values": [{"measurement": "Persistence of hypotensive effect", "setting": "arterial pressure [1]", "value": 8, "unit": "min"}, {"measurement": "ED30", "setting": "arterial pressure [1]", "value": 0.025, "unit": "mg/kg"}, {"measurement": "Blood circulation rate in vertebral artery, percentage increase", "setting": "vertebral artery; 0.001 mg/kg", "value": 14, "unit": "%"}, {"measurement": "Blood circulation rate in vertebral artery, persistence", "setting": "vertebral artery; 0.001 mg/kg", "value": 6, "unit": "min"}, {"measurement": "Blood circulation rate in vertebral artery, percentage increase", "setting": "vertebral artery; 0.002 mg/kg", "value": 40, "unit": "%"}, {"measurement": "Blood circulation rate in vertebral artery, persistence", "setting": "vertebral artery; 0.002 mg/kg", "value": 20, "unit": "min"}, {"measurement": "Blood circulation rate in carotid artery, percentage increase", "setting": "carotid artery; 0.001 mg/kg", "value": 14, "unit": "%"}, {"measurement": "Blood circulation rate in carotid artery, persistence", "setting": "carotid artery; 0.001 mg/kg", "value": 6, "unit": "min"}, {"measurement": "Blood circulation rate in carotid artery, percentage increase", "setting": "carotid artery; 0.002 mg/kg", "value": 60, "unit": "%"}, {"measurement": "Blood circulation rate in carotid artery, persistence", "setting": "carotid artery; 0.002 mg/kg", "value": 12, "unit": "min"}, {"measurement": "Blood circulation rate in coronary artery, percentage increase", "setting": "coronary artery; 0.001 mg/kg", "value": 12, "unit": "%"}, {"measurement": "Blood circulation rate in coronary artery, persistence", "setting": "coronary artery; 0.001 mg/kg", "value": 5, "unit": "min"}, {"measurement": "Blood circulation rate in coronary artery, percentage increase", "setting": "coronary artery; 0.002 mg/kg", "value": 30, "unit": "%"}, {"measurement": "Blood circulation rate in coronary artery, persistence", "setting": "coronary artery; 0.002 mg/kg", "value": 12, "unit": "min"}, {"measurement": "Blood circulation rate in femoral artery, percentage increase", "setting": "femoral artery; 0.001 mg/kg", "value": 10, "unit": "%"}, {"measurement": "Blood circulation rate in femoral artery, persistence", "setting": "femoral artery; 0.001 mg/kg", "value": 5, "unit": "min"}, {"measurement": "Blood circulation rate in femoral artery, percentage increase", "setting": "femoral artery; 0.002 mg/kg", "value": 26, "unit": "%"}, {"measurement": "Blood circulation rate in femoral artery, persistence", "setting": "femoral artery; 0.002 mg/kg", "value": 10, "unit": "min"}, {"measurement": "Activity", "setting": "cerebral vessels", "value": "inadequate activity"}, {"measurement": "Vasodilation activity", "setting": "cerebral vessels", "value": "vasodilation activity preponderantly towards cerebral vessels"}, {"measurement": "LD50", "setting": "in vivo", "value": 225, "unit": "mg/kg"}]}
{"smiles": "COCCOC(=O)C1=C(C)NC(C)=C(C(=O)OCCOC)C1c1ccccc1OC(F)F", "note": "[R = C2 H4 OCH3, 2,6-dimethyl-3,5-bis-(2-methoxyethoxycarbonyl)-4-(2-difluoromethoxyphenyl)-1,4-dihydropyridine]", "values": [{"measurement": "Persistence of hypotensive effect", "setting": "arterial pressure [1]", "value": 3, "unit": "min"}, {"measurement": "ED30", "setting": "arterial pressure [1]", "value": 0.045, "unit": "mg/kg"}, {"measurement": "ED30", "setting": "arterial pressure [2]", "value": 0.04, "unit": "mg/kg"}, {"measurement": "LD50", "setting": "in vivo", "value": 1130, "unit": "mg/kg"}]}
{"smiles": "COCC(C)OC(=O)C1=C(C)NC(C)=C(C(=O)OC(C)COC)C1c1ccccc1OC(F)F", "note": "(stereo not drawn) [R = CH(CH3)CH2 OCH3, 2,6-dimethyl-3,5-bis-[(1-methyl-2-methoxy)-ethoxycarbonyl]-4-(2-difluoromethoxyphenyl)-1,4-dihydropyridine]", "values": [{"measurement": "Persistence of hypotensive effect", "setting": "arterial pressure [1]", "value": 10, "unit": "min"}, {"measurement": "ED30", "setting": "arterial pressure [1]", "value": 0.038, "unit": "mg/kg"}, {"measurement": "LD50", "setting": "in vivo", "value": 2500, "unit": "mg/kg"}]}
{"smiles": "CCCOCCOC(=O)C1=C(C)NC(C)=C(C(=O)OCCOCCC)C1c1ccccc1OC(F)F", "note": "[R = C2 H4 OC3 H7, 2,6-dimethyl-3,5-bis-(2-propoxyethoxycarbonyl)-4-(2-difluoromethoxyphenyl)-1,4-dihydropyridine]", "values": [{"measurement": "Persistence of hypotensive effect", "setting": "arterial pressure [1]", "value": 7, "unit": "min"}, {"measurement": "ED30", "setting": "arterial pressure [1]", "value": 0.0045, "unit": "mg/kg"}, {"measurement": "ED30", "setting": "arterial pressure [2]", "value": 0.008, "unit": "mg/kg"}, {"measurement": "Blood circulation rate in vertebral artery, percentage increase", "setting": "vertebral artery; 0.0005 mg/kg", "value": 20, "unit": "%"}, {"measurement": "Blood circulation rate in vertebral artery, persistence", "setting": "vertebral artery; 0.0005 mg/kg", "value": 8, "unit": "min"}, {"measurement": "Blood circulation rate in vertebral artery, percentage increase", "setting": "vertebral artery; 0.001 mg/kg", "value": 90, "unit": "%"}, {"measurement": "Blood circulation rate in vertebral artery, persistence", "setting": "vertebral artery; 0.001 mg/kg", "value": 18, "unit": "min"}, {"measurement": "Blood circulation rate in vertebral artery, percentage increase", "setting": "vertebral artery; 0.002 mg/kg", "value": 110, "unit": "%"}, {"measurement": "Blood circulation rate in vertebral artery, persistence", "setting": "vertebral artery; 0.002 mg/kg", "value": 20, "unit": "min"}, {"measurement": "Blood circulation rate in carotid artery, percentage increase", "setting": "carotid artery; 0.0005 mg/kg", "value": 17, "unit": "%"}, {"measurement": "Blood circulation rate in carotid artery, persistence", "setting": "carotid artery; 0.0005 mg/kg", "value": 5, "unit": "min"}, {"measurement": "Blood circulation rate in carotid artery, percentage increase", "setting": "carotid artery; 0.001 mg/kg", "value": 60, "unit": "%"}, {"measurement": "Blood circulation rate in carotid artery, persistence", "setting": "carotid artery; 0.001 mg/kg", "value": 15, "unit": "min"}, {"measurement": "Blood circulation rate in carotid artery, percentage increase", "setting": "carotid artery; 0.002 mg/kg", "value": 100, "unit": "%"}, {"measurement": "Blood circulation rate in carotid artery, persistence", "setting": "carotid artery; 0.002 mg/kg", "value": 20, "unit": "min"}, {"measurement": "Blood circulation rate in coronary artery, percentage increase", "setting": "coronary artery; 0.0005 mg/kg", "value": 10, "unit": "%"}, {"measurement": "Blood circulation rate in coronary artery, persistence", "setting": "coronary artery; 0.0005 mg/kg", "value": 5, "unit": "min"}, {"measurement": "Blood circulation rate in coronary artery, percentage increase", "setting": "coronary artery; 0.001 mg/kg", "value": 30, "unit": "%"}, {"measurement": "Blood circulation rate in coronary artery, persistence", "setting": "coronary artery; 0.001 mg/kg", "value": 8, "unit": "min"}, {"measurement": "Blood circulation rate in coronary artery, percentage increase", "setting": "coronary artery; 0.002 mg/kg", "value": 50, "unit": "%"}, {"measurement": "Blood circulation rate in coronary artery, persistence", "setting": "coronary artery; 0.002 mg/kg", "value": 12, "unit": "min"}, {"measurement": "Blood circulation rate in femoral artery, percentage increase", "setting": "femoral artery; 0.0005 mg/kg", "value": 0, "unit": "%"}, {"measurement": "Blood circulation rate in femoral artery, percentage increase", "setting": "femoral artery; 0.001 mg/kg", "value": 10, "unit": "%"}, {"measurement": "Blood circulation rate in femoral artery, persistence", "setting": "femoral artery; 0.001 mg/kg", "value": 8, "unit": "min"}, {"measurement": "Blood circulation rate in femoral artery, percentage increase", "setting": "femoral artery; 0.002 mg/kg", "value": 25, "unit": "%"}, {"measurement": "Blood circulation rate in femoral artery, persistence", "setting": "femoral artery; 0.002 mg/kg", "value": 10, "unit": "min"}, {"measurement": "Intensity and duration of effect on blood circulation rate compared with Nicardipin", "setting": "[3]", "value": "much more potent"}, {"measurement": "Hypotensive effect compared with Niphedipin", "setting": "[4]", "value": "does not differ substantially"}, {"measurement": "Hypotensive potency", "setting": "[4]", "value": "most markedly pronounced hypotensive potency"}, {"measurement": "LD50", "setting": "in vivo", "value": 450, "unit": "mg/kg"}]}
{"smiles": "COC(=O)C1=C(C)NC(C)=C(C(=O)OC)C1c1ccccc1[N+](=O)[O-]", "note": "[Niphedipin, 2,6-dimethyl-3,5-dimethoxycarbonyl-4-(2-nitrophenyl)-1,4-dihydropyrine, reference compound]", "values": [{"measurement": "Persistence of hypotensive effect", "setting": "arterial pressure [1]", "value": 6, "unit": "min"}, {"measurement": "ED30", "setting": "arterial pressure [1]", "value": 0.02, "unit": "mg/kg"}, {"measurement": "Tachycardia", "setting": "[4]", "value": "tachycardia"}, {"measurement": "Side effects", "setting": "[5]", "value": "dizziness and nausea"}]}
{"smiles": "CCOCCOC(=O)C1=C(C)NC(C)=C(C(=O)OCCOCC)C1c1ccccc1OC(F)F", "note": "[R = C2 H4 OC2 H5, 2,6-dimethyl-3,5-bis-(2-ethoxyethoxycarbonyl)-4-(2-difluoromethoxyphenyl)-1,4-dihydropyridine]", "values": [{"measurement": "Persistence of hypotensive effect", "setting": "arterial pressure [1]", "value": 6, "unit": "min"}, {"measurement": "ED30", "setting": "arterial pressure [1]", "value": 0.01, "unit": "mg/kg"}, {"measurement": "ED30", "setting": "arterial pressure [2]", "value": 0.018, "unit": "mg/kg"}, {"measurement": "Tachycardia", "setting": "[4]", "value": "not causative of tachycardia"}, {"measurement": "Hypotensive effect compared with Niphedipin", "setting": "[4]", "value": "does not differ substantially"}, {"measurement": "Hypotensive potency", "setting": "[4]", "value": "most markedly pronounced hypotensive potency"}, {"measurement": "LD50", "setting": "in vivo", "value": 2200, "unit": "mg/kg"}]}
{"smiles": "CC1=C(C(=O)OCCOc2ccccc2)C(c2ccccc2OC(F)F)C(C(=O)OCCOc2ccccc2)=C(C)N1", "note": "[R = C2 H4 OC6 H5, 2,6-dimethyl-3,5-bis-(2phenoxyethoxycarbonyl)-4-(2difluoromethoxyphenyl)-1,4-dihydropyridine]", "values": [{"measurement": "Persistence of hypotensive effect", "setting": "arterial pressure [1]", "value": 7, "unit": "min"}, {"measurement": "ED30", "setting": "arterial pressure [1]", "value": 0.02, "unit": "mg/kg"}, {"measurement": "ED30", "setting": "arterial pressure [2]", "value": 0.03, "unit": "mg/kg"}, {"measurement": "Hypotensive effect compared with Niphedipin", "setting": "[4]", "value": "does not differ substantially"}, {"measurement": "Hypotensive potency", "setting": "[4]", "value": "most markedly pronounced hypotensive potency"}, {"measurement": "LD50", "setting": "in vivo", "value": 790, "unit": "mg/kg"}]}
